Experimental data taken from US20230078764A1 (Yumanity Therapeutics, Inc., priority 2019, published 2023).

Legend:
human SCD5 = molecular target: T1, human SCD5 (Homo sapiens, UniProt Q86SK9); experiment: Growth inhibition of yeast strain expressing human SCD5 as sole desaturase (OLE1 deleted), OD600 readout; format: cell-based; details: yeast strain expressing human SCD5 as sole desaturase; growth (OD600) after 40 h at 30° C.; read-out: SCD5 IC50
T1 construct: expressed in transfected cells; host or cells: yeast strain with OLE1 deleted, plasmid-borne human SCD5 (selected in SD-Ura)
T1 sequence (Q86SK9 1-330): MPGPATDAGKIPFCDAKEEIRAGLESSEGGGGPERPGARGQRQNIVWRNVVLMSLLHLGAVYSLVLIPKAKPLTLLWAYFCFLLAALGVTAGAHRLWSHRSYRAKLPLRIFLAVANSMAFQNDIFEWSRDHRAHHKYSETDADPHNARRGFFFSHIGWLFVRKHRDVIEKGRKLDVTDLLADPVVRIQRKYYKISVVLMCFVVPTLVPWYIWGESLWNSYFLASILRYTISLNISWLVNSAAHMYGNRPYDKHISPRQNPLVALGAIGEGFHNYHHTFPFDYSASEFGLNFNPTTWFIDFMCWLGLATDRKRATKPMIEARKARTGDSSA

human SCD1 = molecular target: T2, human SCD1 (Homo sapiens, UniProt O00767); experiment: Growth inhibition of yeast strain expressing human SCD1 as sole desaturase (OLE1 deleted), OD600 readout; format: cell-based; details: yeast strain expressing human SCD1 as sole desaturase; growth (OD600) after 40 h at 30° C.; read-out: SCD1 IC50
T2 construct: expressed in transfected cells; host or cells: yeast strain with OLE1 deleted, plasmid-borne human SCD1 (selected in SD-Ura)
T2 sequence (O00767 1-359): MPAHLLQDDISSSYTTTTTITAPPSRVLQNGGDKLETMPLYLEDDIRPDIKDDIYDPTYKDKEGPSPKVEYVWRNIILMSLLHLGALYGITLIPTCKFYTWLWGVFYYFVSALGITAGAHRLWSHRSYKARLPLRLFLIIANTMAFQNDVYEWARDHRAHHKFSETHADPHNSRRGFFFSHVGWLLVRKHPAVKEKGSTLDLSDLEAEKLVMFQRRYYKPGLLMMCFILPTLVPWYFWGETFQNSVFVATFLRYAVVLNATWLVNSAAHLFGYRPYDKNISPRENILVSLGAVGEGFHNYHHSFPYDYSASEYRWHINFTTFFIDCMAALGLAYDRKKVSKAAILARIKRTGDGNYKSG

Compound	IC50 (human SCD5) [nM]	IC50 (human SCD1) [nM]
CN1N=C(C(=O)Nc2ccc(Cc3cccc(CO)c3)cn2)CCC1=O [Compound 436]	> 45000	6240
Cc1cnc(Cc2ccc(NC(=O)C3=NN(C)C(=O)CC3)nc2)s1 [Compound 402]	> 45000	> 45000
CCn1cc(C(=O)Nc2ccc(Cc3cccc(F)c3)nn2)ccc1=O [Compound 410]	> 45000	> 45000
CN1N=C(NC(=O)c2ccc(Cc3ccc(F)c(F)c3)cn2)CCC1=O [Compound 87, 5-(3,4-Difluorobenzyl)-N-(1-methyl-6-oxo-1,4,5,6-tetrahydropyridazin-3-yl)picolinamide]	280	> 45000
Cc1ccc(C(=O)Nc2ccc(Cc3cc(F)cc(F)c3)cn2)nn1 [Compound 484]	14	530
O=C(Nc1ccc(CC2CCCCC2)cn1)c1ccc(CO)cn1 [Compound 321]	10	10
COc1cc(C(=O)Nc2ccc(Cc3cccc(F)c3)cn2)nn(C)c1=O [Compound 127, N-(5-(3-fluorobenzyl)pyridin-2-yl)-5-methoxy-1-methyl-6-oxo-1,6-dihydropyridazine-3-carboxamide]	220	3120
Cn1nc(C(=O)NCc2ccc(Cc3cccc(F)c3)cn2)ccc1=O [Compound 411]	> 45000	> 45000
N#Cc1ccc(C(=O)Nc2ccc(Cc3cccc(Cl)c3)cn2)cn1 [Compound 120, N-(5-(3-chlorobenzyl)pyridin-2-yl)-6-cyanonicotinamide]	30	> 45000
CN1N=C(C(=O)Nc2ccc(Cc3cccc(C(F)(F)F)c3)nn2)CCC1=O [Compound 194, 1-methyl-6-oxo-N-(6-(3-(trifluoromethyl)benzyl)pyridazin-3-yl)-1,4,5,6-tetrahydropyridazine-3-carboxamide]	1540	> 45000
Cn1nc(C(=O)Nc2ccc(Cc3cccc(F)c3)cc2)ccc1=O [Compound 4, N-(4-(3-fluorobenzyl)phenyl)-1-methyl-6-oxo-1,6-dihydropyridazine-3-carboxamide]	580	1730
Cc1cc(C(=O)Nc2ccc(Cc3cc(F)cc(F)c3)cn2)cnc1C#N [Compound 616]	10	522
COc1cc(Cc2ccc(NC(=O)c3ccc(=O)n(C)c3)nc2)ccn1 [Compound 613]	600	3400
N#Cc1cc(C(=O)Nc2ccc(Cc3cc(F)cc(F)c3)cn2)cnc1C#N [Compound 612]	1200	4400
NCc1ccc(C(=O)Nc2ccc(Cc3cccc(Cl)c3)cn2)cn1 [Compound 121, 6-(aminomethyl)-N-(5-(3-chlorobenzyl)pyridin-2-yl)nicotinamide 2,2,2-trifluoroacetate]	20	20
Cn1cc(C(=O)Nc2ccc(Cc3ccc(F)c(C#N)c3)cn2)ccc1=O [Compound 550]	370	2400
Cn1ccc(C(=O)Nc2ccc(Cc3ccc(F)c(F)c3)cn2)n1 [Compound 371]	10	120
CC1CC(C(=O)Nc2ccc(Cc3cccc(F)c3)cn2)=NN(C)C1=O (stereo not drawn) [Compound 118, N-(5-(3-fluorobenzyl)pyridin-2-yl)-1,5-dimethyl-6-oxo-1,4,5,6-tetrahydropyridazine-3-carboxamide]	440	> 45000
Cn1nc(C(=O)Nc2ccc(Cc3cccc(F)c3)cn2)cc1CO [Compound 560]	22	250
O=C(Nc1ccc(Cc2cccc(F)c2)cn1)c1csc(Br)n1 [Compound 632]	70	> 45000
COc1cccc(Cc2cnc(NC(=O)c3ccc(=O)n(C)n3)s2)c1 [Compound 212, N-(5-(3-methoxybenzyl)thiazol-2-yl)-1-methyl-6-oxo-1,6-dihydropyridazine-3-carboxamide]	40	150
CCO/C=C/c1ccc(C(=O)Nc2ccc(Cc3cccc(Cl)c3)cn2)cn1 [Compound 318]	50	130
CN1N=C(C(=O)Nc2cnc(Cc3cccc(Cl)c3)nc2)CCC1=O [Compound 443]	> 45000	> 45000
Cn1cc(C(=O)Nc2ccc(Cc3cc(C#N)ccc3F)cn2)ccc1=O [Compound 648]	990	> 45000

Compound	IC50 (human SCD5) [nM]	IC50 (human SCD1) [nM]
Cn1c(C(=O)Nc2ccc(Cc3cccc(Cl)c3)cn2)cc(=O)n1C [Compound 460]	> 45000	> 45000
Cn1nc(C(=O)Nc2ccc(Cc3cccc(F)c3)cn2)ccc1=O [Example 45, N-(5-(3-fluorobenzyl)pyridin-2-yl)-1-methyl-6-oxo-1,6-dihydropyridazine-3-carboxamide]	430	15400
Cn1cc(C(=O)Nc2ccc(Cc3ccc(Cl)c(C#N)c3)cn2)ccc1=O [Compound 617]	39	220
COc1cc(Cl)cc(Cc2ccc(NC(=O)c3ccc(=O)n(C)n3)nc2)c1 [Compound 282]	20	210
Cn1nc(C(=O)Nc2ncc(Cc3cccc(C#N)c3)s2)ccc1=O [Compound 389]	> 45000	> 45000
COc1cc(Cc2ccc(NC(=O)c3ccc(=O)n(C)n3)nc2)ccc1F [Compound 597]	70	2600
CC(O)c1ccc(C(=O)Nc2ccc(Cc3ccc(F)c(F)c3)cn2)nn1 (stereo not drawn) [Compound 530]	190	160
Cn1cc(C(=O)Nc2ccc(Cc3cc(F)cc(Cl)c3)cn2)cn1 [Compound 316]	10	10
O=C(Nc1ccc(Cc2cccc(F)c2)cn1)c1cc2ncnc(Cl)c2s1 [Compound 527]	1300	> 45000
CC(O)c1ccc(C(=O)Nc2ccc(Cc3cccc(F)c3)cn2)cn1 (stereo not drawn) [Compound 529]	670	1100
Cn1cc(C(=O)Nc2ccc(Oc3ccc(F)c(Cl)c3)cn2)ccc1=O [Compound 167, N-[5-(3-chloro-4-fluorophenoxy)pyridin-2-yl]-1-methyl-6-oxo-1,6-dihydropyridine-3-carboxamide]	930	25900
CN1N=C(C(=O)Nc2ccc(COc3cccc(F)c3)cn2)CCC1=O [Compound 260]	170	4580
CNC(=O)c1ccnc(NC(=O)c2ccc(Cc3cccc(F)c3)cn2)c1 [Compound 567]	10	10
O=C(Nc1ncc(Cc2cccc(Cl)c2)s1)c1ccc(=O)n(C2COC2)n1 [Compound 225, N-(5-(3-chlorobenzyl)thiazol-2-yl)-1-(oxetan-3-yl)-6-oxo-1,6-dihydropyridazine-3-carboxamide]	1960	2070
CN1N=C(C(=O)Nc2ccc(Cc3ccc(F)c(Cl)c3)nn2)CCC1=O [Compound 179, N-(6-(3-chloro-4-fluorobenzyl)pyridazin-3-yl)-1-methyl-6-oxo-1,4,5,6-tetrahydropyridazine-3-carboxamide]	1030	> 45000
Cn1cc(C(=O)Nc2ccc(Cc3ccc(F)c(F)c3)cn2)cn1 [Compound 314]	20	100
Cn1nc(NC(=O)c2ccc(Cc3cccc(Cl)c3)cn2)ccc1=O [Compound 89, 5-(3-Chlorobenzyl)-N-(1-methyl-6-oxo-1,6-dihydropyridazin-3-yl)picolinamide]	10	110
N#Cc1cc(C(=O)Nc2ccc(Cc3ccc(F)c(F)c3)cn2)ccn1 [Compound 563]	570	1100
CC(c1cccc(F)c1)c1cnc(NC(=O)C2=NN(C)C(=O)CC2)s1 (stereo not drawn) [Compound 214, N-(5-(1-(3-fluorophenyl)ethyl)thiazol-2-yl)-1-methyl-6-oxo-1,4,5,6-tetrahydropyridazine-3-carboxamide]	1750	14500
CN1N=C(C(=O)Nc2ncc(Cc3cccc(Cl)c3)cc2F)CCC1=O [Compound 124, N-(5-(3-chlorobenzyl)-3-fluoropyridin-2-yl)-1-methyl-6-oxo-1,4,5,6-tetrahydropyridazine-3-carboxamide]	10000	> 45000
N#Cc1ccc(NC(=O)c2ccc(Cc3cc(F)cc(F)c3)cn2)cn1 [Compound 526]	10	99
Cc1cc(C(=O)Nc2ccc(Cc3cc(F)cc(C#N)c3)cn2)cnc1C#N [Compound 663]	39	> 45000
Cc1cnc(C(=O)Nc2ccc(Cc3cccc(F)c3)cn2)nc1 [Compound 139, N-(5-(3-fluorobenzyl)pyridin-2-yl)-5-methylpyrimidine-2-carboxamide]	60	4930
N#Cc1cnc(NC(=O)c2ccc(Cc3cccc(F)c3)cn2)nc1 [Compound 627]	10	327
